Reference: patent US11291205B2, “Microbiocidal picolinamide derivatives” (Syngenta Participations AG, priority 2017, dated 2022)

Legend:
Assay type in all cases: cell-based
[1] = test system: Monographella nivalis (Microdochium nivale); assay: Monographella nivalis (Microdochium nivale) / liquid culture (foot rot cereals); details: 96 h, 200 ppm in the formulation, inhibition of growth determined photometrically 4-5 days after application, compared to untreated control, read-out: disease control
Procedure: Monographella nivalis (Microdochium nivale)/Liquid Culture (Foot Rot Cereals) Conidia of the fungus from cryogenic storage are directly mixed into nutrient broth (PDB potato dextrose broth). After placing a (DMSO) solution of test compound into a microtiter plate (96-well format), the nutrient broth containing the fungal spores is added. The test plates are incubated at 24° C. and the inhibition of growth is determined photometrically 4-5 days after application.

[2] = test system: Glomerella lagenarium (Colletotrichum lagenarium); assay: Glomerella lagenarium (Colletotrichum lagenarium) / liquid culture (anthracnose); details: Colletotrichum orbiculare, 72 h, 200 ppm in the formulation, inhibition of growth measured photometrically 3 to 4 days after application, compared to untreated control, read-out: disease control
Procedure: Glomerella lagenarium (Colletotrichum lagenarium)/Liquid Culture (Anthracnose) Conidia of the fungus from cryogenic storage are directly mixed into nutrient broth (PDB potato dextrose broth). After placing a (DMSO) solution of test compound into a microtiter plate (96-well format), the nutrient broth containing the fungal spores is added. The test plates are incubated at 24° C. and the inhibition of growth is measured photometrically 3 to 4 days after application.

[3] = test system: Mycosphaerella graminicola (Septoria tritici); assay: Mycosphaerella graminicola (Septoria tritici) / liquid culture (Septoria blotch); details: Zymoseptoria tritici, 96 h, 200 ppm in the formulation, inhibition of growth determined photometrically 4 to 5 days after application, compared to untreated control, read-out: disease control
Procedure: Mycosphaerella graminicola (Septoria tritici)/Liquid Culture (Septoria Blotch) Conidia of the fungus from cryogenic storage are directly mixed into nutrient broth (PDB potato dextrose broth). After placing a (DMSO) solution of test compound into a microtiter plate (96-well format), the nutrient broth containing the fungal spores is added. The test plates are incubated at 24° C. and the inhibition of growth is determined photometrically 4 to 5 days after application.

[4] = test system: Mycosphaerella arachidis (Cercospora arachidicola); assay: Mycosphaerella arachidis (Cercospora arachidicola) / liquid culture (early leaf spot); details: 96 h, 200 ppm in the formulation, inhibition of growth determined photometrically 4-5 days after application, compared to untreated control, read-out: disease control
Procedure: Mycosphaerella arachidis (Cercospora arachidicola)/Liquid Culture (Early Leaf Spot) Conidia of the fungus from cryogenic storage are directly mixed into nutrient broth (PDB potato dextrose broth). After placing a (DMSO) solution of test compound into a microtiter plate (96-well format), the nutrient broth containing the fungal spores is added. The test plates are incubated at 24° C. and the inhibition of growth is determined photometrically 4-5 days after application.

[5] = test system: Botryotinia fuckeliana (Botrytis cinerea); assay: Botryotinia fuckeliana (Botrytis cinerea) / liquid culture (gray mould); details: 72 h, 200 ppm in the formulation, inhibition of growth determined photometrically 3-4 days after application, compared to untreated control, read-out: disease control
Procedure: Botryotinia fuckeliana (Botrytis cinerea)/Liquid Culture (Gray Mould) Conidia of the fungus from cryogenic storage are directly mixed into nutrient broth (Vogels broth). After placing a (DMSO) solution of test compound into a microtiter plate (96-well format), the nutrient broth containing the fungal spores is added. The test plates are incubated at 24° C. and the inhibition of growth is determined photometrically 3-4 days after application.

Measured: inhibition of growth at 200 ppm

COc1ccnc(C(=O)N[C@@H](C)C(=O)OC2CCC2(C)c2ccc(F)cc2)c1O (stereo partly drawn) [I.ad.02, [2-(4-fluoro phenyl)-2-methyl-cyclobutyl] (2S)-2-[(3-hydroxy-4-methoxy-pyridine-2-carbonyl)amino]propanoate]
≥ 80%: [1] | [2] | [3]

CCC1(c2ccc(F)cc2)CCC1OC(=O)[C@H](C)NC(=O)c1nccc(OC)c1O (stereo partly drawn) [I.ag.02, [2-ethyl-2-(4-fluorophenyl)cyclo-butyl] (2S)-2-[(3-hydroxy-4-methoxy-pyridine-2-carbonyl)amino]propanoate]
not listed: [5]
≥ 80%: all other assays above

COc1ccnc(C(=O)N[C@@H](C)C(=O)OC2CC2c2ccc(C(C)(C)C)cc2)c1O (stereo partly drawn) [I.ap.01, [2-(4-tert-butylphenyl)cyclopropyl] (2S)-2-[(3-hydroxy-4-methoxy-pyridine-2-carbonyl)amino]propanoate]
≥ 80%: all assays above

CCCc1ccc(C2CC2OC(=O)[C@H](C)NC(=O)c2nccc(OC)c2O)cc1 (stereo partly drawn) [I.aq.01, [2-(4-propylphenyl)cyclopropyl] (2S)-2-[(3-hydroxy-4-methoxy-pyridine-2-carbonyl)amino]propanoate]
≥ 80%: all assays above

COc1ccnc(C(=O)N[C@@H](C)C(=O)OC2CCC2(c2ccc(F)cc2)C2CC2)c1O (stereo partly drawn) [I.ar.02, [2-cyclopropyl-2-(4-fluorophenyl)cyclobutyl] (2S)-2-[(3-hydroxy-4-methoxy-pyridine-2-carbonyl)amino]propanoate]
≥ 80%: all assays above

COc1ccnc(C(=O)N[C@@H](C)C(=O)OC2CCC2(c2ccc(Cl)cc2)C2CC2)c1O (stereo partly drawn) [I.as.02, [2-(4-chlorophenyl)-2-cyclopropyl-cyclobutyl] (2S)-2-[(3-hydroxy-4-methoxy-pyridine-2-carbonyl)amino]propanoate]
≥ 80%: all assays above

COc1ccnc(C(=O)N[C@@H](C)C(=O)OC2CCC2(CC(C)C)c2ccc(F)cc2)c1O (stereo partly drawn) [I.at.02, [2-(4-fluorophenyl)-2-isobutyl-cyclobutyl] (2S)-2-[(3-hydroxy-4-methoxy-pyridine-2-carbonyl)amino]propanoate]
not listed: [5]
≥ 80%: all other assays above

COc1ccnc(C(=O)N[C@@H](C)C(=O)OC2CCC2(Cc2ccccc2)c2ccc(F)cc2)c1O (some centres unmarked) [I.au02]
≥ 80%: all assays above

COc1ccnc(C(=O)N[C@@H](C)C(=O)OC2CCC2c2ccc(F)cc2)c1O (stereo partly drawn) [I.e.02, [2-(4-fluorophenyl)cyclobutyl] (2S)-2-[(3-hydroxy-4-methoxy-pyridine-2-carbonyl)amino]propanoate]
≥ 80%: all assays above

COc1ccnc(C(=O)N[C@@H](C)C(=O)OC2CCC2c2ccc(Cl)cc2)c1O (stereo partly drawn) [I.f.02, [2-(4-chlorophenyl)cyclobutyl] (2S)-2-[(3-hydroxy-4-methoxy-pyridine-2-carbonyl)amino]propanoate]
≥ 80%: all assays above

COc1ccnc(C(=O)N[C@@H](C)C(=O)OC2CCC2c2ccc(F)cc2F)c1O (stereo partly drawn) [I.h.02, [2-(2,4-difluorophenyl)cyclobutyl] (2S)-2-[(3-hydroxy-4-methoxy-pyridine-2-carbonyl)amino]propanoate]
≥ 80%: all assays above

COc1ccnc(C(=O)N[C@@H](C)C(=O)OC2CCC2c2ccc(Cl)cc2Cl)c1O (stereo partly drawn) [I.i.02, [2-(2,4-dichlorophenyl)cyclobutyl] (2S)-2-[(3-hydroxy-4-methoxy-pyridine-2-carbonyl)amino]propanoate]
≥ 80%: all assays above

COc1ccnc(C(=O)N[C@@H](C)C(=O)OC2CCC2(c2cccc(C)c2)c2cccc(C)c2)c1O (stereo partly drawn) [I.s.02, [2,2-bis(m-tolyl)cyclobutyl] (2S)-2-[(3-hydroxy-4-methoxy-pyridine-2-carbonyl)amino]propanoate]
not listed: [5]
≥ 80%: all other assays above

COc1ccnc(C(=O)N[C@@H](C)C(=O)OC2CCC2(c2ccc(Cl)cc2)c2ccc(Cl)cc2)c1O (stereo partly drawn) [I.v.02, [2,2-bis(4-chlorophenyl)cyclobutyl] (2S)-2-[(3-hydroxy-4-methoxy-pyridine-2-carbonyl)amino]propanoate]
not listed: [5]
≥ 80%: all other assays above

COc1ccnc(C(=O)N[C@@H](C)C(=O)OC2CCC2(c2ccc(C)cc2)c2ccc(C)cc2)c1O (stereo partly drawn) [I.w.02, [2,2-bis(p-tolyl)cyclobutyl](2S)-2-[(3-hydroxy-4-methoxy-pyridine-2-carbonyl)amino]propanoate]
not listed: [5]
≥ 80%: all other assays above
